# Measured values from US12344610B2, “APOL1 inhibitors and methods of use” (Maze Therapeutics, Inc., priority 2022, dated 2025).
# Where two headings read alike, the source gives them in different places.
# What was measured:
# Format in all cases: cell-based
# [1] = tested on: HEK293 clonal cell line overexpressing APOL1 G1; experiment: APOL1 G1 HEK293 cell rescue assay (Example B3); conditions: geometric mean of at least 2 runs, † = single run, ¥ = concentration at 50% rescue estimated (no sigmoidal curve)
# Outline: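 Rescue of cell death caused by APOL1 G1 overexpression was measured in a clonal HEK293 line. Compounds were tested in duplicate on one plate, and EC50s were geometric means across at least two runs on different days. Some values are estimated 50%-rescue concentrations where curve fitting failed.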
# [2] = tested on: Trypanosoma brucei Lister 427 VSG221 with APOL1 G1 recombinant protein; experiment: APOL1 G1 trypanosome cell rescue assay (Example B5); conditions: geometric mean of at least 2 assay runs, † = single assay run
# Outline: (§1)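 Luminescent ATP read-out (CellTiter-Glo) of trypanosome viability after 20 h at 37° C. Bloodstream T. brucei Lister 427 VSG221, 250/well in modified HMI-9, were exposed to recombinant mature APOL1 (aa 28-398) from a 2 μg/mL addition, plus compound in 11-point 2-fold series.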
# [3] = tested on: Trypanosoma brucei Lister 427 VSG221 with APOL1 G2 recombinant protein; experiment: APOL1 G2 trypanosome cell rescue assay (Example B5); conditions: geometric mean of at least 2 assay runs, † = single assay run
# Outline: as §1
# [4] = Homo sapiens, HEK293, HEK293 clonal line overexpressing APOL1 G1
# [5] = Trypanosoma brucei, 20 h, read-out: APOL1 G1 Trypanosome Rescue EC50, Trypanosoma brucei Lister 427 VSG221 with APOL1 G1 recombinant protein, 20 hours, CellTiter-Glo
# [6] = Trypanosoma brucei, 20 h, read-out: APOL1 G2 Trypanosome Rescue EC50, Trypanosoma brucei Lister 427 VSG221 with APOL1 G2 recombinant protein, 20 hours, CellTiter-Glo
# [7] = HEK293 clonal line overexpressing APOL1 G1
# [8] = read-out: APOL1 G1 Trypanosome Rescue EC50, Trypanosoma brucei Lister 427 VSG221 with APOL1 G1 recombinant protein, 20 hours, CellTiter-Glo
# [9] = read-out: APOL1 G2 Trypanosome Rescue EC50, Trypanosoma brucei Lister 427 VSG221 with APOL1 G2 recombinant protein, 20 hours, CellTiter-Glo
Structure (SMILES),"EC50 [1, 4] [nM]","EC50 [2, 5] [nM]","EC50 [3, 6] [nM]","EC50 [1, 7] [nM]","EC50 [2, 8] [nM]","EC50 [3, 9] [nM]"
"N#Cc1ccc2c(c1)C1(CCN(CCOc3ccc(C(N)=O)c(C(F)F)c3)CC1)C(=O)N2 [Compound 250, 4-(2-{5-cyano-2-oxo-1,2-dihydrospiro[indole-3,4′-piperidin]-1′-yl}ethoxy)-2-(difluoromethyl)benzamide]",192,678,194,,,
"Cn1c(=O)[nH]c2cc(OCCN3CCC4(CC3)C(=O)Nc3ccc(Cl)cc34)cnc21 [Compound 247, 5-chloro-1′-[2-({3-methyl-2-oxo-1H,2H,3H-imidazo[4,5-b]pyridin-6-yl}oxy)ethyl]-1,2-dihydrospiro[indole-3,4′-piperidin]-2-one]",270,246,81,,,
"CN(C)C(=O)c1ccc(OCCN2CCC3(CC2)C(=O)Nc2ccc(Cl)cc23)cc1F [Compound 230, 4-(2-{5-chloro-2-oxo-1,2-dihydrospiro[indole-3,4′-piperidin]-1′-yl}ethoxy)-2-fluoro-N,N-dimethylbenzamide]",325,801,209,,,
"CS(=O)(=O)c1ccc(OCCN2CCC3(CC2)C(=O)Nc2ccc(C#N)cc23)cc1C(F)CF (single isomer, unassigned) [Compound 221, 1′-(2-{3-[(1S or 1R)-1,2-difluoroethyl]-4-methanesulfonyl-phenoxy}ethyl)-2-oxo-1,2-dihydrospiro [indole-3,4′-piperidine]-5-carbonitrile]",,129,29.5,217,,
"CS(=O)(=O)c1ccc(OCCN2CCC3(CC2)C(=O)Nc2ccc(Cl)cc23)cc1C(F)F [Compound 197, 5-chloro-1′-{2-[3-(difluoromethyl)-4-methanesulfonylphenoxy]ethyl}-1,2-dihydrospiro[indole-3,4′-piperidin]-2-one]",69.5,193,10.6,,,
"COCCN1C(=O)C2(CCN(CCOc3ccc(S(C)(=O)=O)cc3)CC2)c2cc(Cl)ccc21 [Compound 20, 5-chloro-1′-[2-(4-methanesulfonylphenoxy)ethyl]-1-(2-methoxyethyl)-1,2-dihydrospiro[indole-3,4′-piperidin]-2-one]",815,949,263,,,
"CN1C(=O)C2(CCN(CCOc3ccc(C4(S(C)(=O)=O)CC(O)C4)cc3)CC2)c2cc(C(F)F)ccc21 (single isomer, unassigned) [Compound 278, 5-(difluoromethyl)-1-methyl-1′-(2-{4-[(cis) or (trans)-3-hydroxy-1-methanesulfonylcyclobutyl]phenoxy}ethyl)-1,2-dihydrospiro[indole-3,4′-piperidin]-2-one]",,,,92.6,111,25.5
"O=C1CCc2cc(OCCN3CCC4(CC3)C(=O)Nc3ccc(Cl)cc34)cnc2N1[C@H]1C[C@@](O)(C2CC2)C1 (single isomer, unassigned) [Compound 297, 5-chloro-1′-[2-({7-oxo-8-[(trans)-3-cyclopropyl-3-hydroxycyclobutyl]-5,6,7,8-tetrahydro-1,8-naphthyridin-3-yl}oxy)ethyl]-1,2-dihydrospiro[indole-3,4′-piperidin]-2-one]",119,85.4,31.5,,,
"O=C1Nc2ccc(Cl)cc2C12CCN(CCOc1ccc(S(=O)(=O)CCO)cc1)CC2 [Compound 198, 5-chloro-1′-{2-[4-(2-hydroxyethanesulfonyl)phenoxy)ethyl}-1,2-dihydrospiro[indole-3,4′-piperidin]-2-one]",203,142,41.9,,,
"C[C@@H](COc1ccc(S(C)(=O)=O)c(C(F)F)c1)N1CCC2(CC1)C(=O)Nc1ccc(C#N)cc12 (single isomer, unassigned) [Compound 212]",192,103,32.1,,,
"CC(O)c1ncc(OCCN2CCC3(CC2)C(=O)Nc2ccc(C(F)F)cc23)cc1C(F)(F)F (single isomer, unassigned) [Compound 288, 5-(difluoromethyl)-1′-[2-({6-[(1R) or (1S)-1-hydroxyethyl]-5-(trifluoromethyl)pyridin-3-yl}oxy)ethyl]-1,2-dihydrospiro[indole-3,4′-piperidin]-2-one]",,,,62.1,36.1,9.75
"O=C1Nc2ccc(Cl)cc2C12CCN(CCOc1ccc(S(=O)(=O)C3(C(=O)N4CCC4)CC3)cc1)CC2 [Compound 228, 1′-[2-(4-{[1-(azetidine-1-carbonyl)cyclopropyl]sulfonyl}phenoxy)ethyl]-5-chloro-1,2-dihydrospiro[indole-3,4′-piperidin]-2-one]",426,363,86.2,,,
"O=C1Nc2ccc(Cl)cc2C12CCN(CCOc1cnc3c(N4CC(O)C4)nccc3c1)CC2 [Compound 314, 5-chloro-1′-(2-{[8-(3-hydroxyazetidin-1-yl)-1,7-naphthyridin-3-yl]oxy}ethyl)-1,2-dihydrospiro[indole-3,4′-piperidin]-2-one]",53.2,34.9,11.5,,,
"O=C(c1ccc(OCCN2CCC3(CC2)C(=O)Nc2ccc(Cl)cc23)cc1F)N1CCOCC1 [Compound 231, 5-chloro-1′-{2-[3-fluoro-4-(morpholine-4-carbonyl)phenoxy]ethyl}-1,2-dihydrospiro[indole-3,4′-piperidin]-2-one]",169,231,66.7,,,
"CN1C(=O)C2(CCN(CCOc3cc(F)c(C(=O)N4CCS(=O)(=O)CC4)c(F)c3)CC2)c2cc(C#N)ccc21 [Compound 260, 1′-{2-[4-(1,1-dioxo-1λ^6-thiomorpholine-4-carbonyl)-3,5-difluorophenoxy]ethyl}-1-methyl-2-oxo-1,2-dihydrospiro[indole-3,4′-piperidine]-5-carbonitrile]",248,397,110,,,
"C[C@]1(O)C[C@H](N2C(=O)CCc3cc(OCCN4CCC5(CC4)C(=O)Nc4ccc(Cl)cc45)cnc32)C1 (single isomer, unassigned) [Compound 307, 5-chloro-1′-[2-({7-oxo-8-[(trans)-3-hydroxy-3-methylcyclobutyl]-5,6,7,8-tetrahydro-1,8-naphthyridin-3-yl}oxy)ethyl]-1,2-dihydrospiro[indole-3,4′-piperidin]-2-one]",70,79.7,27.2,,,
"O=C(c1ccc(OCCN2CCC3(CC2)C(=O)Nc2ccc(Cl)cc23)cc1F)N1CCS(=O)(=O)CC1 [Compound 232, 4-[4-(2-{5-chloro-2-oxo-1,2-dihydrospiro[indole-3,4′-piperidin]-1′-yl}ethoxy)-2-fluorobenzoyl]-1λ^6-thiomorpholine-1,1-dione]",137,157,41.6,,,
"CC1(O)CN(c2nccc3cc(OCCN4CCC5(CC4)C(=O)Nc4ccc(Cl)cc45)cnc23)C1 [Compound 306, 5-chloro-1′-(2-{[8-(3-hydroxy-3-methylazetidin-1-yl)-1,7-naphthyridin-3-yl]oxy}ethyl)-1,2-dihydrospiro[indole-3,4′-piperidin]-2-one]",245,50.8,15,,,
"CC(O)c1ncc(OCCN2CCC3(CC2)C(=O)Nc2ccc(Cl)cc23)cc1C(F)(F)F (single isomer, unassigned) [Compound 291, 5-chloro-1′-[2-({6-[(1R) or (1S)-1-hydroxyethyl]-5-(trifluoromethyl)pyridin-3-yl}oxy)ethyl]-1,2-dihydrospiro[indole-3,4′-piperidin]-2-one]",,,,104,79.7,26.5
"CC1(O)CN(c2ncc(OCCN3CCC4(CC3)C(=O)Nc3ccc(Cl)cc34)cn2)C1 [Compound 300, 5-chloro-1′-(2-{[2-(3-hydroxy-3-methylazetidin-1-yl)pyrimidin-5-yl]oxy}ethyl)-1,2-dihydrospiro[indole-3,4′-piperidin]-2-one]",183,543,160,,,
"CC(O)c1ncc(OCCN2CCC3(CC2)C(=O)Nc2ccc(Cl)cc23)cn1 (single isomer, unassigned) [Compound 286, 5-chloro-1′-[2-({2-[(1R) or (1S)-1-hydroxyethyl]pyrimidin-5-yl}oxy)ethyl]-1,2-dihydrospiro[indole-3,4′-piperidin]-2-one]",,,,272,629,175
"CC(C)(O)c1ncc(OCCN2CCC3(CC2)C(=O)Nc2ccc(Cl)cc23)cn1 [Compound 305, 5-chloro-1′-(2-{[2-(2-hydroxypropan-2-yl)pyrimidin-5-yl]oxy}ethyl)-1,2-dihydrospiro[indole-3,4′-piperidin]-2-one]",172,265,80.4,,,
